Earlier results on three compounds are cited in patent US20060172402A1, “Production of vanillin in microbial cells” (priority 2002, published 2006).

The series concerns tobacco class II COMT. The following applies: Maury et al., 1999.

With `O=Cc1ccc(O)c(O)c1` [3,4-Dihydioxybenzaldehyde, 3,4-dihydroxybenzaldehyde], the “activity of the enzyme against the substrate” value (“activity of the enzyme” below) is on record as “did have activity”.
`O=C(O)/C=C/c1ccc(O)c(O)c1` [Caffeic acid]: the “activity of the enzyme” value was “no activity”.
For the compound `COc1cc(/C=C/C(=O)O)cc(O)c1O` [5-OH-Ferulic acid], the “activity of the enzyme” value is “no activity”.
